According to ChEMBL document CHEMBL5052823, “Prc1 inhibitors and methods of treatment therewith” (2020):
Activity calls are given as the source filed them. The rule behind the calls is not given here.

Tests used:
M9-ENL1 [1] = assay: Inhibition of colony formation in human M9-ENL1; type: functional, cell-based
Homo sapiens [2] = species on record: Homo sapiens; assay: Inhibition of TRIM37 (unknown origin) activity at 12.2 to 50 uM relative to control; conditions: dose 12.2-50 µM
K562 [3] = assay: Inhibition of RING1B-BMI1 H2Aub activity in human K562 cells at 6.2 to 25 uM relative to control; type: cell-based; conditions: dose 6.2-25 µM
Homo sapiens [4] = species on record: Homo sapiens; assay: Inhibition of RING1B-PCGF1 (unknown origin) activity at 0.4 to 25 uM relative to control; conditions: dose 0.4-25 µM
Homo sapiens [5] = species on record: Homo sapiens; assay: Inhibition of RING1B-BMI1 (unknown origin) interaction with nucleosome at 0.8 to 12.5 uM measured by EMSA assay relative to control; conditions: dose 0.8-12.5 µM
T cell = assay: Inhibition of RING1B-BMI1 H2Aub activity in human TEX cells at 6 to 25 uM relative to control; type: cell-based; conditions: dose 6-25 µM
Homo sapiens [6] = species on record: Homo sapiens; assay: Inhibition of BRCA1-BARD1 (unknown origin) activity at 12.2 to 50 uM relative to control; conditions: dose 12.2-50 µM
M9-ENL1 [7] = assay: Antitumour activity against human M9-ENL1 cells transplanted in mouse assessed as decrease in engraftment; type: functional, cell-based
M9-ENL1 [8] = assay: Antitumour activity against human M9-ENL1 cells transplanted in mouse assessed as decrease in leukemia development; type: functional, cell-based
K562 [9] = assay: Inhibition of PRC1 in human K562 cells; type: cell-based
T-cell line = assay: Induction on human TEX cells differentiation assessed as reduction in CD34 surface expression at 6 to 25 uM relative to control; type: functional, cell-based; conditions: dose 6-25 µM

Row | inhibition (Homo sapiens [2]) | inhibition (Homo sapiens [4]) | inhibition (Homo sapiens [5]) | inhibition (Homo sapiens [6]) | Compound | inhibition (M9-ENL1 [1]) | inhibition (K562 [3]) | inhibition (T cell) | Activity (M9-ENL1 [7]) | Activity (M9-ENL1 [8]) | inhibition (K562 [9]) | Activity (T-cell line)
1 | inactive | Active | Active | inactive | CC(C)c1c(-c2cccc3[nH]ccc23)[nH]c(C(=O)O)c1-c1c(Cl)ccc2[nH]ccc12 | Active | Active | Active | Active | Active | Active | Active
2 | – | – | – | – | CCc1c(-c2cccc3c2ccn3CCO)[nH]c(C(=O)O)c1-c1ccc(OC)cc1Cl | – | – | – | – | – | – | inactive
